EP0134650B1, “High boiling solvent system for recovery of acetic acid from aqueous solutions” (CELANESE CORPORATION, priority 1983, dated 1985)

Assay: Dissolved water in the solvent layer (extract) of acetic acid extraction
Type: physicochemical
Settings: Acid in solvent layer 16.85 wt.%
Source text: Generally as the distribution coefficient goes up, water solubility increases in the extract. The effect for methyl n-amyl ketone and diisobutyl ketone is as follows: […]

| SMILES | Dissolved water in solvent layer, wt.% [wt.%] |
| --- | --- |
| CC(C)CC(=O)CC(C)C [diisobutyl ketone] | 3.0 |
| CCCCCC(C)=O [methyl n-amyl ketone] | 5.0 |
